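Test compounds were applied to cells in 96-well plates for 48 hours at 5 doses. GI50 = concentration required for 50% inhibition of growth. TGI denotes the concentration required for complete inhibition of growth.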
Key:
Test in all cases: growth of human tumour cells (NCI), 48 h
SK-MEL-28 melanoma = system: SK-MEL-28 melanoma
COLO 205 colon = system: COLO 205 colon
A549 NSCLC = system: A549 NSCLC
786-0 renal = system: 786-0 renal
PC-3 prostate = system: PC-3 prostate
M14 melanoma = system: M14 melanoma
NCI-H460 lung = system: NCI-H460 lung
NCI-H522 lung = system: NCI-H522 lung
U251 CNS = system: U251 CNS
DU-145 prostate = system: DU-145 prostate
NCI/ADR-RES ovarian = system: NCI/ADR-RES ovarian
MOLT-4 leukemia = system: MOLT-4 leukemia
OVCAR-8 ovarian = system: OVCAR-8 ovarian
SK-MEL-2 melanoma = system: SK-MEL-2 melanoma
SN12C renal = system: SN12C renal
KM12 colon = system: KM12 colon
EKVX NSCLC = system: EKVX NSCLC
OVCAR-4 ovarian = system: OVCAR-4 ovarian
BT-549 breast = system: BT-549 breast
SF-268 CNS = system: SF-268 CNS
MALME-3M melanoma = system: MALME-3M melanoma
K-562 leukemia = system: K-562 leukemia
OVCAR-5 ovarian = system: OVCAR-5 ovarian
RXF 393 renal = system: RXF 393 renal
T-47D breast = system: T-47D breast
UACC-257 melanoma = system: UACC-257 melanoma
OVCAR-3 ovarian = system: OVCAR-3 ovarian
UO-31 renal = system: UO-31 renal
HOP-62 NSCLC = system: HOP-62 NSCLC
HCT-15 colon = system: HCT-15 colon
LOX IMVI melanoma = system: LOX IMVI melanoma
NCI-H23 lung = system: NCI-H23 lung
SNB-19 CNS = system: SNB-19 CNS
A498 renal = system: A498 renal
RPMI-8226 leukemia = system: RPMI-8226 leukemia
MDA-MB-231 breast = system: MDA-MB-231 breast
TK-10 renal = system: TK-10 renal
CAKI-1 renal = system: CAKI-1 renal
SNB-75 CNS = system: SNB-75 CNS
NCI-H226 lung = system: NCI-H226 lung
ACHN renal = system: ACHN renal
CCRF-CEM leukemia = system: CCRF-CEM leukemia
HCT-116 colon = system: HCT-116 colon
SF-295 CNS = system: SF-295 CNS
HT29 colon = system: HT29 colon
MCF7 breast = system: MCF7 breast
HS 578T breast = system: HS 578T breast
MDA-MB-435 = system: MDA-MB-435
SF-539 CNS = system: SF-539 CNS
SK-MEL-5 melanoma = system: SK-MEL-5 melanoma
SW-620 colon = system: SW-620 colon
IGROV1 ovarian = system: IGROV1 ovarian
UACC-62 melanoma = system: UACC-62 melanoma
HL-60(TB) leukemia = system: HL-60(TB) leukemia
SR leukemia = system: SR leukemia

NC(C(=O)OC(=O)c1ccccc1)C(=O)OC(=O)c1ccccc1
TGI (SK-MEL-28 melanoma): > 100 µM | TGI (COLO 205 colon): > 100 µM | TGI (A549 NSCLC): > 100 µM | TGI (786-0 renal): > 100 µM | TGI (PC-3 prostate): > 100 µM | TGI (M14 melanoma): > 100 µM | TGI (NCI-H460 lung): > 100 µM | TGI (NCI-H522 lung): > 100 µM | TGI (U251 CNS): > 100 µM | TGI (DU-145 prostate): > 100 µM | TGI (NCI/ADR-RES ovarian): > 100 µM | TGI (MOLT-4 leukemia): > 100 µM | TGI (OVCAR-8 ovarian): > 100 µM | TGI (SK-MEL-2 melanoma): > 100 µM | TGI (SN12C renal): > 100 µM | TGI (KM12 colon): > 100 µM | TGI (EKVX NSCLC): > 100 µM | TGI (OVCAR-4 ovarian): > 100 µM | TGI (BT-549 breast): > 100 µM | TGI (SF-268 CNS): > 100 µM | TGI (MALME-3M melanoma): > 100 µM | TGI (K-562 leukemia): > 100 µM | TGI (OVCAR-5 ovarian): > 100 µM | TGI (RXF 393 renal): > 100 µM | TGI (T-47D breast): > 100 µM | TGI (UACC-257 melanoma): > 100 µM | TGI (OVCAR-3 ovarian): > 100 µM | TGI (UO-31 renal): > 100 µM | TGI (HOP-62 NSCLC): > 100 µM | TGI (HCT-15 colon): > 100 µM | TGI (LOX IMVI melanoma): > 100 µM | TGI (NCI-H23 lung): > 100 µM | TGI (SNB-19 CNS): > 100 µM | TGI (A498 renal): > 100 µM | TGI (RPMI-8226 leukemia): > 100 µM | TGI (MDA-MB-231 breast): > 100 µM | TGI (TK-10 renal): > 100 µM | TGI (CAKI-1 renal): > 100 µM | TGI (SNB-75 CNS): > 100 µM | TGI (NCI-H226 lung): > 100 µM | TGI (ACHN renal): > 100 µM | TGI (CCRF-CEM leukemia): > 100 µM | TGI (HCT-116 colon): > 100 µM | TGI (SF-295 CNS): > 100 µM | TGI (HT29 colon): > 100 µM | TGI (MCF7 breast): > 100 µM | TGI (HS 578T breast): > 100 µM | TGI (MDA-MB-435): > 100 µM | TGI (SF-539 CNS): > 100 µM | TGI (SK-MEL-5 melanoma): > 100 µM | TGI (SW-620 colon): > 100 µM

Cc1ccc(C(=O)N=Nc2c(O)[nH]c3ccc(Cl)cc23)cc1
GI50 (SK-MEL-28 melanoma): 41.8 µM | TGI (SK-MEL-28 melanoma): > 50 µM | GI50 (COLO 205 colon): 19 µM | TGI (COLO 205 colon): > 50 µM | GI50 (A549 NSCLC): 22.8 µM | TGI (A549 NSCLC): > 50 µM | GI50 (786-0 renal): > 50 µM | TGI (786-0 renal): > 50 µM | GI50 (PC-3 prostate): 25.9 µM | TGI (PC-3 prostate): > 50 µM | GI50 (M14 melanoma): 22.7 µM | TGI (M14 melanoma): > 50 µM | GI50 (NCI-H460 lung): 15.1 µM | TGI (NCI-H460 lung): > 50 µM | GI50 (NCI-H522 lung): 20.2 µM | TGI (NCI-H522 lung): > 50 µM | GI50 (U251 CNS): 21.5 µM | TGI (U251 CNS): > 50 µM | GI50 (DU-145 prostate): 46.9 µM | TGI (DU-145 prostate): > 50 µM | GI50 (NCI/ADR-RES ovarian): > 50 µM | TGI (NCI/ADR-RES ovarian): > 50 µM | GI50 (MOLT-4 leukemia): 3.2 µM | TGI (MOLT-4 leukemia): > 50 µM | GI50 (OVCAR-8 ovarian): 10.8 µM | TGI (OVCAR-8 ovarian): 32.4 µM | GI50 (SK-MEL-2 melanoma): > 50 µM | TGI (SK-MEL-2 melanoma): > 50 µM | GI50 (SN12C renal): 8.7 µM | TGI (SN12C renal): 17.8 µM | GI50 (KM12 colon): > 50 µM | TGI (KM12 colon): > 50 µM | GI50 (EKVX NSCLC): > 50 µM | TGI (EKVX NSCLC): > 50 µM | GI50 (OVCAR-4 ovarian): 6.82 µM | TGI (OVCAR-4 ovarian): 18 µM | GI50 (BT-549 breast): 25 µM | TGI (BT-549 breast): > 50 µM | GI50 (SF-268 CNS): 25.4 µM | TGI (SF-268 CNS): > 50 µM | GI50 (K-562 leukemia): 16.2 µM | TGI (K-562 leukemia): > 50 µM | GI50 (OVCAR-5 ovarian): 44.6 µM | TGI (OVCAR-5 ovarian): > 50 µM | GI50 (RXF 393 renal): 13.7 µM | TGI (RXF 393 renal): > 50 µM | GI50 (UACC-257 melanoma): > 50 µM | TGI (UACC-257 melanoma): > 50 µM | GI50 (IGROV1 ovarian): 36.6 µM | TGI (IGROV1 ovarian): > 50 µM | GI50 (OVCAR-3 ovarian): 21.3 µM | TGI (OVCAR-3 ovarian): > 50 µM | GI50 (UO-31 renal): > 50 µM | TGI (UO-31 renal): > 50 µM | GI50 (HCT-15 colon): 18 µM | TGI (HCT-15 colon): > 50 µM | GI50 (LOX IMVI melanoma): 31.2 µM | TGI (LOX IMVI melanoma): > 50 µM | GI50 (NCI-H23 lung): 16.9 µM | TGI (NCI-H23 lung): > 50 µM | GI50 (SNB-19 CNS): 45.6 µM | TGI (SNB-19 CNS): > 50 µM | GI50 (A498 renal): 35.3 µM | TGI (A498 renal): > 50 µM | GI50 (RPMI-8226 leukemia): 5.74 µM | TGI (RPMI-8226 leukemia): > 50 µM | GI50 (MDA-MB-231 breast): 18.7 µM | TGI (MDA-MB-231 breast): > 50 µM | GI50 (TK-10 renal): 43.2 µM | TGI (TK-10 renal): > 50 µM | GI50 (CAKI-1 renal): 16.1 µM | TGI (CAKI-1 renal): 45.3 µM | GI50 (SNB-75 CNS): 16.6 µM | TGI (SNB-75 CNS): > 50 µM | GI50 (UACC-62 melanoma): 9.3 µM | TGI (UACC-62 melanoma): 23.1 µM | GI50 (NCI-H226 lung): 7.4 µM | TGI (NCI-H226 lung): 24.6 µM | GI50 (ACHN renal): > 50 µM | TGI (ACHN renal): > 50 µM | GI50 (CCRF-CEM leukemia): 0.322 µM | TGI (CCRF-CEM leukemia): > 50 µM | GI50 (HCT-116 colon): 10.4 µM | TGI (HCT-116 colon): > 50 µM | GI50 (SF-295 CNS): 44.5 µM | TGI (SF-295 CNS): > 50 µM | GI50 (HT29 colon): 19.8 µM | TGI (HT29 colon): > 50 µM | GI50 (HL-60(TB) leukemia): 38.7 µM | TGI (HL-60(TB) leukemia): > 50 µM | GI50 (MCF7 breast): 13.5 µM | TGI (MCF7 breast): > 50 µM | GI50 (HS 578T breast): > 50 µM | TGI (HS 578T breast): > 50 µM | GI50 (MDA-MB-435): 13 µM | TGI (MDA-MB-435): 40.6 µM | GI50 (SF-539 CNS): > 50 µM | TGI (SF-539 CNS): > 50 µM | GI50 (SK-MEL-5 melanoma): 23.7 µM | TGI (SK-MEL-5 melanoma): > 50 µM | GI50 (SR leukemia): > 50 µM | TGI (SR leukemia): > 50 µM | GI50 (SW-620 colon): 11.4 µM | TGI (SW-620 colon): 41.4 µM
